The record followed here is article PMC12524402, “Cobalt(II) Complexes of 4′-Bromo-Fenamic Acid: Antioxidant Properties, Antibacterial Activity, and Interaction with DNA and Albumins” (International Journal of Molecular Sciences, 2025).

Molecules are shown by their SMILES.

Assay [1] deals with T1, BSA (bovine serum albumin) (Bos taurus, UniProt P02769).
T1 construct: gene ALB; commercial native serum albumin (Sigma-Aldrich), mature secreted protein, catalogue number not given
Briefly: tryptophan fluorescence quenching (excitation […] nm), Scatchard plot. The conditions noted are these: read-out: K(BSA) (converted). Format: binding.

In assay [2] the target is T2, HSA (human serum albumin) (Homo sapiens, UniProt P02768).
T2 construct: gene ALB; commercial serum albumin (Sigma-Aldrich), mature secreted protein, catalogue number not given
T2 sequence (P02768 25-609): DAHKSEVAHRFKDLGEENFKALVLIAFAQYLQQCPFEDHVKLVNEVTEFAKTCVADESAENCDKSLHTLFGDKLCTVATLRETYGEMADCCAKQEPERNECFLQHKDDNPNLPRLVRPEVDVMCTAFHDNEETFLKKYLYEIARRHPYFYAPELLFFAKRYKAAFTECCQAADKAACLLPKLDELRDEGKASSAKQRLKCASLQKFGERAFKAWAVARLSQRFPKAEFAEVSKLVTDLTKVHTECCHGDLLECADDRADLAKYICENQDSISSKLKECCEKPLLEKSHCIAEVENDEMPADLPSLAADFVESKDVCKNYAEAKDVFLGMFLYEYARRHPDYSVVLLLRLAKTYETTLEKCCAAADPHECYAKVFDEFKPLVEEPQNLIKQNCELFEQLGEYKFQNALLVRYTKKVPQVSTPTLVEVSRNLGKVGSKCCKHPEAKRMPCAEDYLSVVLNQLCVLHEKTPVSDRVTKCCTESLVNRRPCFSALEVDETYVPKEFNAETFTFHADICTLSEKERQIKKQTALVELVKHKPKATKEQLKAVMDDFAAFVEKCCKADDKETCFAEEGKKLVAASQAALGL
The assay is described as above. In kind it is binding. Conditions: read-out: K(HSA) (converted).

T1 sequence (P02769 25-607): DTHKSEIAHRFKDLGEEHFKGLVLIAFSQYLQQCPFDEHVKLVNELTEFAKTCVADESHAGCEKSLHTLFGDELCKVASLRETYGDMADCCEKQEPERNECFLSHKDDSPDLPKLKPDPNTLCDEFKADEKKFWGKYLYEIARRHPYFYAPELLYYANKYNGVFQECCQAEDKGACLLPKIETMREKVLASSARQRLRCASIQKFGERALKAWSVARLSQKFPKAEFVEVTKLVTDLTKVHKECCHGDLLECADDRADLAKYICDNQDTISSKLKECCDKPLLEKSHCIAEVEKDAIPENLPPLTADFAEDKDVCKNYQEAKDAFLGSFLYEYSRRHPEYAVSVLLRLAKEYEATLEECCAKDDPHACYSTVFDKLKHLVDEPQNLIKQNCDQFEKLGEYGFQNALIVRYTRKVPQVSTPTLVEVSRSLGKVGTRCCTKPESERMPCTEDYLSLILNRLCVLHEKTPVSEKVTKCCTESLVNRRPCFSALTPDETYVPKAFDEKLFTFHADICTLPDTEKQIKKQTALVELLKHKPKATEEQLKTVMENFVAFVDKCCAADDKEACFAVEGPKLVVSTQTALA

Turning to `O=C(O)c1ccccc1Nc1ccc(Br)cc1` [4′-Br-fenH], the Kd in assay [1] is 3.68 µM; in assay [2] it was 3.7 µM.
